In US20060088509A1, “Isolated clk-1 -/- cells from clk-1 heterozygous animals and their use in treating oxidative stress disorders” (priority 2004, published 2006):

Assays:
mclk1 +/+ ES cells [1] = assay: Growth rate (cell multiplication); type: cell-based, mouse; details: for Cell multiplication, percent of the wild-type phenotype: number in brackets; for Cell multiplication: number of cells on day 5, day 1 being 1 × 10^5
Procedure: (§1) Cells were seeded in six-well dishes at 1×10^5/well in ES cell medium with or without supplements (UQ9: 0.16 μM, sodium pyvurate: 110 mg/L). At different time points, the cells were trypsinized and counted with a hemocytometer. The cells were also analyzed by the trypan blue exclusion method 24 hours after treatment with menadione (6 μM).

mclk1 −/− ES cells [2] = assay: Growth rate (cell multiplication); type: cell-based, mouse; details: for Cell multiplication, percent of the wild-type phenotype: number in brackets; for Cell multiplication: number of cells on day 5, day 1 being 1 × 10^5
Procedure: as §1

mclk1 +/+ ES cells [3] = assay: Oxygen consumption; type: cell-based, mouse; set-up: Oxygen consumption: scale not given here; details: for Oxygen consumption, percent of the wild-type phenotype: number in brackets
mclk1 +/+ ES cells [4] = assay: Cell death assay: resistance to menadione (trypan blue exclusion); type: cell-based, mouse; details: for Resistance to menadione [% viability]: 24 hours in menadione 6 μM, with the supplement named as label; for Resistance to menadione, percent of the wild-type phenotype: number in brackets
Procedure: as §1

mclk1 −/− ES cells [5] = assay: as above; type: cell-based, mouse; details: for Resistance to menadione [% viability]: 24 hours in menadione 6 μM, with the supplement named as label; for Resistance to menadione, percent of the wild-type phenotype: number in brackets
Procedure: as §1

mclk1 +/+ ES cells [6] = assay: Reactive oxygen species measurement (DCHF-DA fluorescence); type: cell-based, mouse; details: for Basal ROS levels, percent of the wild-type phenotype / Induced ROS levels, percent of the wild-type phenotype: number in brackets; for Induced ROS levels: oxidative stress induced by 0.1 mM FeSO4 and 0.2 mM sodium ascorbate
Procedure: (§2) For the fluorimetric measurement of ROS, cells were incubated with 10 μM DCHF-DA (Molecular Probes) for 20 min at 37° C. ROS levels were measured fluorimetrically with excitation and emission wavelenghts of 495 nm and 530 nm, respectively. Oxidative stress was induced by incubating the cells loaded with DCHF-DA with 0.1 mM FeSO4 and 0.2 mM sodium ascorbate.

mclk1 −/− ES cells [7] = assay: as above; type: cell-based, mouse; details: for Basal ROS levels, percent of the wild-type phenotype / Induced ROS levels, percent of the wild-type phenotype: number in brackets; for Induced ROS levels: oxidative stress induced by 0.1 mM FeSO4 and 0.2 mM sodium ascorbate
Procedure: as §2

mclk1 −/− ES cells [8] = assay: LIF requirement assay; type: cell-based, mouse; details: number in brackets
Procedure: (§3) ES cells were plated at a density of 500 cells/cm^2 in gelatin-coated 6-well plates in ES cell medium containing various concentration of LIF. Three days after inoculation, the proportion of undifferentiated colonies was determined after scoring the morphology of 300 randomly chosen colonies.

mclk1 −/− ES cells [9] = assay: Sensitivity to cell death-inducing agents (trypan blue exclusion); type: cell-based, mouse; details: for Sensitivity of mclk1 −/− ES cells to the cell death-inducing agent: compared with mclk1 +/+ cells, etoposide 20 μM 24 h, anisomysin 2 μM 24 h, staurosporine 0.4 μM 24 h, all-trans retinoic acid 1 μM 96 h, sodium azide 15 μM 24 h
Procedure: We tested serum starvation (48 hours) and treatment with etoposide (20 μM, 24 hours), anisomysin (2 μM, 24 hours), staurosporine (0.4 μM; 24 hours), all-trans retinoic acid (1 μM, 96 hours) and sodium azide (15 μM, 24 hours).

mclk1 −/− ES cells [10] = assay: Oxygen consumption; type: cell-based, mouse; details: for Oxygen consumption, percent of the wild-type phenotype: number in brackets; for Effect on low respiration, slow growth, and LIF resistance phenotypes: sentence also covers growth and LIF assays
mclk1 +/+ ES cells [11] = assay: LIF requirement assay; type: cell-based, mouse; set-up: LIF requirement [% undifferentiated colonies, n = 300]: dose or concentration left out as unconfirmed; details: for LIF requirement [% undifferentiated colonies, n = 300]: day 3, medium with LIF; for LIF requirement, percent of the wild-type phenotype: number in brackets
Procedure: as §3

Mitochondrial complex II = target: T1, Mitochondrial complex II (Mus musculus, UniProt Q9CQA3+Q9CXV1+Q9CZB0); assay: Mitochondrial complex II activity of mclk1 −/− ES cells; type: biochemical
T1 construct: mitochondria (containing 50 μg protein) were pre-incubated with reaction buffer; endogenous in cells; host or cells: mitochondria isolated from mouse mclk1 +/+ and mclk1 -/- ES cells
T1 sequence (Q8K2B3 43-664 partner): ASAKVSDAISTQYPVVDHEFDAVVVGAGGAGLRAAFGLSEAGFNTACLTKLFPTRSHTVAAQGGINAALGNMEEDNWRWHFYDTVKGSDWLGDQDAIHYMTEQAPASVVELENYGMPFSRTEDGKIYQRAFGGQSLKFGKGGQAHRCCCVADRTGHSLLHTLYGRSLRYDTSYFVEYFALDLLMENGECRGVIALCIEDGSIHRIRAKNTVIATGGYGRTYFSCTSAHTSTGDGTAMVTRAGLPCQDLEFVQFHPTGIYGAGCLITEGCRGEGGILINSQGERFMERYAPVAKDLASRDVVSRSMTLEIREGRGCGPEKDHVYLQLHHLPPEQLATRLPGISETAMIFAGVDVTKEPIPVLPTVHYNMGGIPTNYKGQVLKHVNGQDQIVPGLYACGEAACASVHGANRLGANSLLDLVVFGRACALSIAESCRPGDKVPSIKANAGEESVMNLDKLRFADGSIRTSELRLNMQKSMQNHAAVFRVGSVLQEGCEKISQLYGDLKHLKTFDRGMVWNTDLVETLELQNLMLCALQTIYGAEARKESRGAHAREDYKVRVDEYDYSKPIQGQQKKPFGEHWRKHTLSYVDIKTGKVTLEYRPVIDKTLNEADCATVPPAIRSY
T1 sequence (Q9CQA3 31-282): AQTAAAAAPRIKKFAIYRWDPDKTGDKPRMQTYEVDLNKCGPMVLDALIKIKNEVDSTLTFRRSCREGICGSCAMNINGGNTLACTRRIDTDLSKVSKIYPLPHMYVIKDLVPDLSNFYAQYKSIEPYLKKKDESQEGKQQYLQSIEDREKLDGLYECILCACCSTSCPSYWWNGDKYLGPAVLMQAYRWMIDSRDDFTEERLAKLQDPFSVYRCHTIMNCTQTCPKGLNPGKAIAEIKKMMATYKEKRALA
T1 sequence (Q9CZB0 30-169): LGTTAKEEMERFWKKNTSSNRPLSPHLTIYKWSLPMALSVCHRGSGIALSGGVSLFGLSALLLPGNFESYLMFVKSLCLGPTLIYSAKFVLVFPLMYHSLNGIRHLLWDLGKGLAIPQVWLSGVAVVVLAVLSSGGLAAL
T1 sequence (Q9CXV1 57-159): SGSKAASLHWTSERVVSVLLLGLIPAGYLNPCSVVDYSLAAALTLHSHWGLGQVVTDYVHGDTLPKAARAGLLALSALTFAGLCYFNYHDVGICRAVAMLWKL
Procedure: Mitochondrial complex II activity was measured as follows: mitochondria (containing 50 μg protein) were pre-incubated with reaction buffer ([…]) for 10 minutes at room temperature. The reaction was started by adding 2 μg/ml Antimycin A, 2 μg/ml Rotenone, 2 mM KCN, 50 μM 2,6-Dichlorophenolindophenol (Sigma) in the presence or absence of 65 μM Q1. The linear decrease in absorbance at 600 nm was recorded (ε=21 mM-1 cm^−1).

[12] = mclk1 −/− ES cells, number in brackets

CC(=O)C(=O)[O-].[Na+] [Sodium pyruvate, sodium pyruvate]
Cell multiplication, percent of the wild-type phenotype (mclk1 +/+ ES cells [1]): (99) percent of the wild-type phenotype
Cell multiplication (mclk1 +/+ ES cells [1]): 25.0 ± 4.8 ×10^5 cells
Cell multiplication, percent of the wild-type phenotype (mclk1 −/− ES cells [2]): (75) percent of the wild-type phenotype
Cell multiplication (mclk1 −/− ES cells [2]): 18.9 ± 2.8 ×10^5 cells
Oxygen consumption (mclk1 +/+ ES cells [3]): 9.1 ± 0.4 103 μl O2/sec/μg of protein
Oxygen consumption, percent of the wild-type phenotype (mclk1 +/+ ES cells [3]): (98) percent of the wild-type phenotype
Resistance to menadione [% viability] (mclk1 +/+ ES cells [4]): 23 ± 7.5 % viability
Resistance to menadione, percent of the wild-type phenotype (mclk1 +/+ ES cells [4]): (101) percent of the wild-type phenotype
Resistance to menadione [% viability] (mclk1 −/− ES cells [5]): 68.9 ± 6.5 % viability
Resistance to menadione, percent of the wild-type phenotype (mclk1 −/− ES cells [5]): (304) percent of the wild-type phenotype
Basal ROS levels (mclk1 +/+ ES cells [6]): 4.1 ± 0.3 Fluorescence Unit × 100/μg pro
Basal ROS levels, percent of the wild-type phenotype (mclk1 +/+ ES cells [6]): (100) percent of the wild-type phenotype
Induced ROS levels, percent of the wild-type phenotype (mclk1 +/+ ES cells [6]): (102) percent of the wild-type phenotype
Induced ROS levels (mclk1 +/+ ES cells [6]): 11.8 ± 1.2 Fluorescence Unit × 100/μg Pro
Basal ROS levels (mclk1 −/− ES cells [7]): 2.3 ± 0.2 Fluorescence Unit × 100/μg pro
Basal ROS levels, percent of the wild-type phenotype (mclk1 −/− ES cells [7]): (57) percent of the wild-type phenotype
Induced ROS levels, percent of the wild-type phenotype (mclk1 −/− ES cells [7]): (70) percent of the wild-type phenotype
Induced ROS levels (mclk1 −/− ES cells [7]): 8.1 ± 1.1 Fluorescence Unit × 100/μg Pro
LIF requirement, percent of the wild-type phenotype (mclk1 −/− ES cells [8]): (418) percent of the wild-type phenotype
Resistance of mclk1 −/− cells to cell death-inducing agents upon treatment with sodium pyruvate (mclk1 −/− ES cells [9]; etoposide, anisomycin, all-trans retinoic acid, serum withdrawal): indistinguishable from that of the mclk1 +/+ cells
Oxygen consumption (mclk1 −/− ES cells [10]): 7.9 ± 0.4 103 μl O2/sec/μg of protein
Oxygen consumption, percent of the wild-type phenotype (mclk1 −/− ES cells [10]): (85) percent of the wild-type phenotype
Effect on low respiration, slow growth, and LIF resistance phenotypes (mclk1 −/− ES cells [10]): ameliorated
LIF requirement [% undifferentiated colonies, n = 300] (mclk1 +/+ ES cells [11]): 39.3 ± 12.7 % undifferentiated colonies
LIF requirement, percent of the wild-type phenotype (mclk1 +/+ ES cells [11]): (90) percent of the wild-type phenotype

COC1=C(OC)C(=O)C(C/C=C(\C)CC/C=C(\C)CC/C=C(\C)CC/C=C(\C)CC/C=C(\C)CC/C=C(\C)CC/C=C(\C)CC/C=C(\C)CC/C=C(\C)CCC=C(C)C)=C(C)C1=O [UQ9, ubiquinone]
Cell multiplication, percent of the wild-type phenotype (mclk1 +/+ ES cells [1]): (100) percent of the wild-type phenotype
Cell multiplication (mclk1 +/+ ES cells [1]): 25.3 ± 5.5 ×10^5 cells
Cell multiplication, percent of the wild-type phenotype (mclk1 −/− ES cells [2]): (69) percent of the wild-type phenotype
Cell multiplication (mclk1 −/− ES cells [2]): 17.5 ± 0.4 ×10^5 cells
Oxygen consumption (mclk1 +/+ ES cells [3]): 8.96 ± 0.8 103 μl O2/sec/μg of protein
Oxygen consumption, percent of the wild-type phenotype (mclk1 +/+ ES cells [3]): (96) percent of the wild-type phenotype
Resistance to menadione [% viability] (mclk1 +/+ ES cells [4]): 24 ± 2.9 % viability
Resistance to menadione, percent of the wild-type phenotype (mclk1 +/+ ES cells [4]): (105) percent of the wild-type phenotype
Resistance to menadione [% viability] (mclk1 −/− ES cells [5]): 91.3 ± 3.4 % viability
Resistance to menadione, percent of the wild-type phenotype (mclk1 −/− ES cells [5]): (403) percent of the wild-type phenotype
Basal ROS levels (mclk1 +/+ ES cells [6]): 3.8 ± 0.2 Fluorescence Unit × 100/μg pro
Basal ROS levels, percent of the wild-type phenotype (mclk1 +/+ ES cells [6]): (94) percent of the wild-type phenotype
Induced ROS levels, percent of the wild-type phenotype (mclk1 +/+ ES cells [6]): (100) percent of the wild-type phenotype
Induced ROS levels (mclk1 +/+ ES cells [6]): 11.5 ± 0.5 Fluorescence Unit × 100/μg Pro
Basal ROS levels (mclk1 −/− ES cells [7]): 2.4 ± 0.3 Fluorescence Unit × 100/μg pro
Basal ROS levels, percent of the wild-type phenotype (mclk1 −/− ES cells [7]): (59) percent of the wild-type phenotype
Induced ROS levels, percent of the wild-type phenotype (mclk1 −/− ES cells [7]): (57) percent of the wild-type phenotype
Induced ROS levels (mclk1 −/− ES cells [7]): 6.7 ± 1.2 Fluorescence Unit × 100/μg Pro
LIF requirement, percent of the wild-type phenotype (mclk1 −/− ES cells [8]): (446) percent of the wild-type phenotype
Oxygen consumption (mclk1 −/− ES cells [10]): 6.8 ± 0.7 103 μl O2/sec/μg of protein
Oxygen consumption, percent of the wild-type phenotype (mclk1 −/− ES cells [10]): (72) percent of the wild-type phenotype
Effect on low respiration, slow growth, and LIF resistance phenotypes (mclk1 −/− ES cells [10]): ameliorated
LIF requirement [% undifferentiated colonies, n = 300] (mclk1 +/+ ES cells [11]): 39.0 ± 18.5 % undifferentiated colonies
LIF requirement, percent of the wild-type phenotype (mclk1 +/+ ES cells [11]): (90) percent of the wild-type phenotype
Mitochondrial complex II activity without exogenous Q1 (Mitochondrial complex II; mclk1 −/− ES cells grown with the supplement): 9.1 ± 0.5 nmol/min/mg protein
Mitochondrial complex II activity with exogenous Q1 (Mitochondrial complex II; mclk1 −/− ES cells grown with the supplement, Q1 added in vitro): 39.0 ± 3.5 nmol/min/mg protein
Mitochondrial complex II activity with exogenous Q1, percent of the wild-type phenotype (Mitochondrial complex II; [12]): (64) percent of the wild-type phenotype
Mitochondrial complex II activity without exogenous Q1, percent of the wild-type phenotype (Mitochondrial complex II; [12]): (60) percent of the wild-type phenotype

CC1=C(/C=C/C(C)=C/C=C/C(C)=C/C(=O)O)C(C)(C)CCC1 [all-trans retinoic acid]
Sensitivity of mclk1 −/− ES cells to the cell death-inducing agent (mclk1 −/− ES cells [9]): resistant

COc1ccc(C[C@H]2NC[C@H](O)[C@H]2OC(C)=O)cc1 [anisomycin]
Sensitivity of mclk1 −/− ES cells to the cell death-inducing agent (mclk1 −/− ES cells [9]): resistant

COc1cc([C@@H]2c3cc4c(cc3[C@@H](O[C@@H]3O[C@@H]5CO[C@@H](C)O[C@H]5[C@H](O)[C@H]3O)[C@H]3COC(=O)[C@H]23)OCO4)cc(OC)c1O [etoposide]
Sensitivity of mclk1 −/− ES cells to the cell death-inducing agent (mclk1 −/− ES cells [9]): resistant

CC1=CC(=O)c2ccccc2C1=O [menadione]
Resistance to menadione [% viability] (mclk1 +/+ ES cells [4]): 22.7 ± 5.4 % viability
Resistance to menadione, percent of the wild-type phenotype (mclk1 +/+ ES cells [4]): (100) percent of the wild-type phenotype
Resistance to menadione [% viability] (mclk1 −/− ES cells [5]): 68.4 ± 5.4 % viability
Resistance to menadione, percent of the wild-type phenotype (mclk1 −/− ES cells [5]): (304) percent of the wild-type phenotype
Sensitivity of mclk1 −/− ES cells to the cell death-inducing agent (mclk1 −/− ES cells [9]): resistance

CN[C@@H]1C[C@H]2O[C@@](C)([C@@H]1OC)n1c3ccccc3c3c4c(c5c6ccccc6n2c5c31)C(=O)NC4 [staurosporine]
Sensitivity of mclk1 −/− ES cells to the cell death-inducing agent (mclk1 −/− ES cells [9]): neither resistant nor hyper-sensitive
